1 molecule from patent US12479894B2, “Pea peptide with auxiliary hypoglycemic function and preparation method thereof” (CHINA NATIONAL RESEARCH INSTITUTE OF FOOD & FERMENTATION …, priority 2019, dated 2025) can be followed below.

Type in all cases: in vivo
For test [1], the system named is Kunming mice. The experiment in a line: Detection of glucose tolerance level (oral glucose 2 g/kg) in high-fat diet / streptozotocin diabetic mice. To be noted: FIG. 13; last day, glucose 2 g/kg by gavage 60 min after treatment; AUC 0-120 min; pea peptides 1,600 mg/kg BW, metformin 185 mg/kg BW; versus model group. On the procedure:
(§1) Hypoglycemic functions of the pea peptide samples were evaluated by using the following method.
(§2) 110 Kunming mice were weighed and randomly divided into 11 groups in total: a blank group, a model group, a positive group (metformin 185 mg/kg BW), Example 1-low dose (800 mg/kg BW), Example 1-medium dose (1600 mg/kg BW), Example 1-high dose (3,200 mg/kg BW), Example 2 (1,600 mg/kg BW), Example 3 (1,600 mg/kg BW), Comparative Example 1 (,1600 mg/kg BW), Comparative Example 2 (1,600 mg/kg BW), and Comparative Example 3 (1,600 mg/kg BW), with 10 mice for each group. No any treatment was performed on the blank group; the remaining 10 groups were fed with high-fat diet for 30 days, and then intraperitoneally injected with streptozotocin to induce diabetes, for modeling; except for the blank group and the model group, the positive group was gavaged with metformin, and the experimental group was gavaged with corresponding pea peptide, the gavage was successively performed for 28 days, and the following indicators were detected:
b. Detection of Glucose Tolerance Level […]

Test [2] has as its system Kunming mice. The experiment in a line: Detection of fasting blood glucose level in high-fat diet / streptozotocin diabetic mice. To be noted: FIG. 11; gavage 28 days; pea peptides 1,600 mg/kg BW, metformin 185 mg/kg BW; AUC of days 1, 7, 14, 21, 28; versus model group. On the procedure: as §1, §2
a. Detection of Fasting Blood Glucose Level
After modeling, blood samples were collected from tail tips of 11 groups of mice on days 1, 7, 14, 21 and 28, respectively, to determine concentration of fasting blood glucose, and an area under curve, AUC, was calculated for each group based on the average value of 10 data.

The subject of test [3] is Kunming mice. Briefly: Detection of serum insulin level in high-fat diet / streptozotocin diabetic mice. The settings on record: FIG. 15, last day after 28 days gavage, pea peptides 1,600 mg/kg BW, metformin 185 mg/kg BW, versus model group. On the procedure: as §1, §2
c. Detection of Insulin Level
On the last day of the experiment, all mice were killed, blood samples were collected and centrifuged to obtain serum, serum insulin concentrations (μg/L) were detected, and serum insulin concentration was calculated for each group based on the average value of 10 data.

As to `CN(C)C(=N)N=C(N)N` [positive group, metformin], in the test with Kunming mice [1], the “blood glucose concentration (glucose tolerance capability)” value is recorded as “significantly reduce the blood glucose concentration”. Besides, in the test on Kunming mice [2], the “fasting blood glucose level” value is reported as “significantly reduced fasting blood glucose level”. The insulin concentration entry with Kunming mice [3] is “significantly improve the insulin concentrations”.
